The results in this text go back to BindingDB's records for doi:10.1021/jm00072a017 (Farmitalia Carlo Erba, 1993).

For this assay, the target named is T1, Thromboxane-A synthase (Rattus norvegicus, UniProt P49430).
T1 sequence (P49430 whole entry): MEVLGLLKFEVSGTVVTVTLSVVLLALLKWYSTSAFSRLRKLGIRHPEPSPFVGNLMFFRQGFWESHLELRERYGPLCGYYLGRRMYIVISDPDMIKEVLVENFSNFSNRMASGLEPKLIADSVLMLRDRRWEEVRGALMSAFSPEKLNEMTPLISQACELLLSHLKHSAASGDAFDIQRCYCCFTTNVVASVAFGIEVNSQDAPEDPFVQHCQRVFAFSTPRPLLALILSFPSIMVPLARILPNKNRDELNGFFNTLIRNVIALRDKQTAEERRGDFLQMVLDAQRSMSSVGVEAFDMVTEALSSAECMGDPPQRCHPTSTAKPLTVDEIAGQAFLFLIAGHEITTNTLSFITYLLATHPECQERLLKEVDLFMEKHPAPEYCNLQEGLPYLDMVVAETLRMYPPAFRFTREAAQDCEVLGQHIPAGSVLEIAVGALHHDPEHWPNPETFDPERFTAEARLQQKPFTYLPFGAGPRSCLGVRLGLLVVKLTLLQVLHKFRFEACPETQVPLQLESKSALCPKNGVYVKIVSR
As to the kind of experiment: ChEBML_213089. From the text:
In vitro inhibition of thromboxane B2 production in rat whole blood.
Take `CCOC(=O)C1=C(CC)N=C(CC)C(C(=O)OCC)C1c1cccc(-n2ccnc2)c1` (stereo unspecified) [2,6-Diethyl-4-(3-imidazol-1-yl-phenyl)-1,4-dihydro-pyridine-3,5-dicarboxylic acid diethyl ester]: the IC50 – broadly, the concentration that gives 50% inhibition – was > 1000 nM. Next, `CCOC(=O)C1C(C)=NC(C)=C(C(=O)OCCN(C)Cc2ccccc2)C1c1cccc(-c2cccnc2)c1` (stereo unspecified) [2,6-Dimethyl-4-(3-pyridin-3-yl-phenyl)-1,4-dihydro-pyridine-3,5-dicarboxylic acid 3-[2-(benzyl-methyl-amino)-ethyl] ester 5-ethyl ester]: > 1000 nM; `CC1=NC(C)=C(C(=O)OCC(C)C)C(c2cccc(-c3cccnc3)c2)C1C(=O)OCC(C)C` (stereo unspecified) [2,6-Dimethyl-4-(3-pyridin-3-yl-phenyl)-1,4-dihydro-pyridine-3,5-dicarboxylic acid diisobutyl ester]: > 1000 nM; `CCOC(=O)C1=C(C)N=C(C)C(C(=O)OCC)C1c1ccc(-n2ccnc2)cc1` (stereo unspecified) [4-(4-Imidazol-1-yl-phenyl)-2,6-dimethyl-1,4-dihydro-pyridine-3,5-dicarboxylic acid diethyl ester]: > 1000 nM. The same measure for `CCOC(=O)C1=C(C)N=C(C)C(C(=O)OCC)C1c1ccccc1-n1ccnc1` (stereo unspecified) [4-(2-Imidazol-1-yl-phenyl)-2,6-dimethyl-1,4-dihydro-pyridine-3,5-dicarboxylic acid diethyl ester]: > 1000 nM. Next, `CCOC(=O)C1=C(C)N=C(C)C(C(=O)O)C1c1cccc(-n2ccnc2)c1` (stereo unspecified) [4-(3-Imidazol-1-yl-phenyl)-2,6-dimethyl-1,4-dihydro-pyridine-3,5-dicarboxylic acid monoethyl ester]: > 1000 nM.
